Data: patent US20080299076A1, “Compunds and compositions that cause non-apoptotic cell death and uses thereof” (priority 2006, published 2008)

Assays:
[1] = test system: BJ-TERT/LT/ST/RAS^V12 cells; assay: Cell death, viable cells counted using a hemacytometer; format: cell-based, human; conditions: 13 μM erastin A1, 23 μM antimycin, 126 μM 2-methoxyestradiol or the combinations
[2] = test system: BJ-TERT/LT/ST/RAS^V12 cells; assay: Suppression of erastin-induced cell death (suppressor screen and follow-up); format: cell-based, human; conditions: co-treatment with erastin
[3] = test system: BJ-TERT/LT/ST/RAS^V12 cells; assay: Annexin V staining; format: cell-based, human; conditions: camptothecin 1 μM
Method: The percentage of cells in the indicated Ml region were 6%, 6%, and 38% in untreated, erastin-treated (9 μM), and camptothecin-treated (1 μM), respectively.

PARP1 = PARP1 cleavage (western blot); format: cell-based, human; conditions: BJ-TERT/LT/ST/RAS^V12 cells; staurosporine 1 μM 6 h, camptothecin 1 μM 18 h, erastin 20 μg/mL
Method: BJ-TERT/LT/ST/RAS^V12 tumor cells were seeded in six-well dishes, incubated overnight at 37° C. with 5% CO2 and were treated with nothing (NT), staurosporine (ST, 1 μM) for 6 h, camptothecin (C, 1 μM) for 18 h, or erastin (20 μg/mL) for the indicated time, lysed and analyzed by western blot with an anti-PARP1 antibody. A relatively high concentration of erastin was used to ensure loss of PARP cleavage was not due to a concentration-dependent effect.
BJ-TERT/LT/ST/RAS^V12 cells were seeded in polystyrene 100×20 mm dishes (Falcon/#353003) in 10 ml of media. Three million cells were seeded in each dish. After overnight incubation at 37° C. with 5% CO2, BJ-TERT/LT/ST/RAS^V12 cells were treated with nothing, staurosporine (1 μM) for 6 h, camptothecin (1 μM) for 18 h or erastin (20 μg/mL) for 6, 10, 12, 12.5, 13, 14, 18 or 26 h, and prepared for western blotting.

VDAC2 = target: T1, VDAC2 (Homo sapiens, UniProt P45880); assay: VDAC2 binding assay (competition with radiolabelled erastin A9); conditions: competition with tritium-labeled erastin A9
T1 construct: hexahistidine (pET-15b, thrombin site) (N); made in house; host or cells: E. coli
T1 sequence (P45880 1-294): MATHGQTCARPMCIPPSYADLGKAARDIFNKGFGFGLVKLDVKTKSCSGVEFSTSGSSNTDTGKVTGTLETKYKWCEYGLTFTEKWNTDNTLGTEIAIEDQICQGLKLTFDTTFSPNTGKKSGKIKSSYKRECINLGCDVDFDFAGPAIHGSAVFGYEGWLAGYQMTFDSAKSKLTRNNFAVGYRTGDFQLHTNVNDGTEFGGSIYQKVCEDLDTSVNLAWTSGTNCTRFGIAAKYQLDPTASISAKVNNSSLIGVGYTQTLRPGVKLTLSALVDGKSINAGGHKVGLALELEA
Method: Given the interactions between erastin and VDAC using affinity-based target identification and VDAC functional assays, the direct binding of erastin to VDACs was investigated.
VDAC2 protein was isolated from E. coli using a modified version of the protocol originally described by Koppel et al. Bacterial cultures were grown in LB containing 50 mg/L ampicillin to an OD of 0.6, and induced using […] IPTG overnight. Cultures were harvested by centrifugation at 6000×g for 10 min. The pellet was then washed with dH2O and resuspended in buffer (20% sucrose, 20 mM Tris, pH 8.0, […] lysozyme) and incubated at 25° C. for 10 minutes. The lysate was then sonicated for 2×30 seconds and centrifuged at 15000×g for 20 minutes. The pellet was resuspended in resuspension buffer (4.5 M guanidine-HCl, 0.1M NaCl, 20 mM Tris, pH 8.0) and incubated for 1 hour at 25° C. The suspension was then centrifuged (20 minutes, 15000×g), and the supernatant was loaded on a NI-NTA Superflow column (Qiagen) pre-equilibrated with 5 volumes of resuspension buffer. The column was washed with 5 column volumes of resuspension buffer containing 10 mM imidazole. The protein was then eluted using resuspension buffer containing 225 mM imidazole. The eluate was dialysed against 0.1 M NaCl, 20 mM Tris, pH 8.0, and 2% LDAO (Fluka) overnight, and then concentrated via centrifugation to 4 mg/mL.
To assay direct binding of erastin analogs, 40 μg of purified VDAC2 was resuspended in 100 μL of Binding Buffer (25 mM HEPES, pH 8.0, 0.1% BSA, 7 mM MgCl2, 15 mM NaCl), and incubated in the presence of 20 μM radiolabelled erastin A9 and erastin A9 or erastin A8 for 15 minutes. The mixture was then deposited onto Protran BA85 0.45 μM binding filters (Whatman) using vacuum filtration. The filter was rinsed 5 times with 1 mL wash buffer (25 mM HEPES, 0.1% BSA), and then incubated in 5 mL scintillation liquid (Cytoscint, MP Biomedicals). Radioactivity was detected on a LKB Wallac 1211 RACKBETA Liquid Scintillation Counter.

murine VDAC3 = target: T2, murine VDAC3 (Mus musculus, UniProt Q60931); assay: NADH oxidation assay in mitochondria from yeast expressing VDAC3; format: biochemical; conditions: mitochondria from yeast expressing VDAC3 in place of yeast VDAC
T2 construct: expressed in transfected cells; host or cells: yeast (S. cerevisiae) with murine VDAC3 in place of yeast VDAC; isolated mitochondria
T2 sequence (Q60931 1-283): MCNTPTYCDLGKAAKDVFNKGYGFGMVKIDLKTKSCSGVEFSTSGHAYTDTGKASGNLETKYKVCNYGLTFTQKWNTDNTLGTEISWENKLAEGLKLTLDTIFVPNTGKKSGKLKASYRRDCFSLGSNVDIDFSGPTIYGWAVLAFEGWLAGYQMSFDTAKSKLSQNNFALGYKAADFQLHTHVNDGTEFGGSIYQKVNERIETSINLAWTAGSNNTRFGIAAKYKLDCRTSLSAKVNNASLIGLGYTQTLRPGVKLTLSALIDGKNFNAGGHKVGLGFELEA
Method: In certain embodiments, mitochondria can be purified from yeast that had been engineered to express murine or human VDAC3 in place of yeast VDAC.
Mitochondria were isolated from yeast expressing murine VDAC3 in place of yeast VDAC. The rate of NADH oxidation by an inner membrane NADH dehydrogenase was determined by measuring the change in NADH absorbance over time. Mitochondria with a disrupted outer membrane show an increased rate of NADH oxidation (red, shocked) compared to untreated mitochondria (green).
NADH oxidation in the mitochondria was measured by resuspending mitochondria isolated from yeast in R-buffer (0.65 M sucrose, 10 mM HEPES (pH 7.5), 10 mM KH2PO4, 5 mM KCl, 5 mM, MgCl2) to a final concentration of 100 μg/ml. Mitochondrial concentration was measured by dissolving mitochondria in 0.6% SDS and reading absorbance at 280 nm. The mitochondrial suspension was then incubated with 25 μM NADH, and the absorbance at 340 nm monitored over a 15 minute period. The assay was repeated in the presence of erastin. To assess mitochondrial intactness, a parallel assay was run in which mitochondria were hypotonically shocked prior to addition of NADH. The mitochondrial pellet was resuspended in dH2O and incubated on ice for 3 minutes to disrupt the outer mitochondrial membrane. 2× R-buffer was then added to restore normal osmotic conditions.

[4] = test system: BJ-TERT/LT/ST/RAS^V12 cells; assay: Alamar Blue viability assay; format: cell-based, human; conditions: BJ-TERT/LT/ST/RAS^V12 cells versus BJ-TERT cells
Method: (a) Calu-1 lung carcinoma cells harboring oncogenic KRAS were infected with lentivirus containing shRNAs targeting KRAS or GFP. Sequences of shRNAs are indicated by starting nucleotide (nt) in the KRAS mRNA coding sequence. Cells were treated with erastin and viability measured by Trypan Blue exclusion. (b) Knockdown of KRAS was confirmed by western blot. (c,d) A673 cells harboring oncogenic BRAF were infected with lentiviral shRNAs targeting BRAF exon 5 (c) or the 5′ UTR (d), luciferase (LUC) (c) or GFP (d). Cells were treated with erastin and viability measured using Alamar Blue (c) and Trypan Blue (d). (e) Knockdown of BRAF was confirmed by western blot. […] BJ-TERT/LT/ST/RAS^V12 cells were treated with erastin alone or in with a MEK inhibitor U0126 (20 μM), MEK inhibitor I (10 μM) or MEK 1/2 inhibitor (50 μM). After 48 h, viability was determined using Trypan Blue. (g) Structures of certain erastin and related analogs. (h) and (i) Dose-response curves were measured for erastin A3 and erastin B2 in BJ-TERT/LT/ST/RAS^V12 cells (black squares) or BJ-TERT cells (grey circles). (j) Calu-1 lung carcinoma cells harboring oncogenic KRAS were infected with lentivirus containing shRNAs targeting KRAS or GFP. Sequences of shRNAs are indicated by starting nucleotide (nt) in the KRAS mRNA coding sequence. Cells were treated with erastin and viability (y-axis) measured by Trypan Blue exclusion. Cells were treated with erastin for 24 hours, and percent inhibition of viability (y-axis) measured using Alamar Blue (k) and Trypan Blue (l). (m) Structures of erastin and related analogs. (n) Dose-response curves were measured for erastin A6, erastin B2, erastin A8 and erastin A9 in BJ-TERT/LT/ST/RAS^V12 cells (squares) or BJ-TERT cells (circles) using Alamar Blue.
Alamar Blue metabolism: 10% Alamar Blue was added to assay plates, which were then incubated for an additional 16 hours. Red fluorescence, resulting from reduction of Alamar Blue, was detected on a Victor3 platereader (ex: 530, em: 590).
Table 2. Activity of RAS-selective lethal compound erastin in tumor cell lines. IC50 values (ng/mL) are shown using the Alamar Blue viability assay. BJ engineered tumor cells express TERT, LT, ST, and oncogenic RAS. Isogenic RAS^V12 lacking cells are identical but lack HRAS^V12. BJ-DRD cells are derived from BJ cells and contain TERT, oncogenic RAS, a truncated from of p53 (p53DD) that disrupts the tetramerization of endogenous p53, a CDK4(R24C) mutant resistant to inhibition by p16INK4A and p151NK4B (the major negative regulators of CDK4) and cyclin D1. These latter protein substitute for LT. HCT-116, A549, Calu-1, and MIA PaCa-2 are tumor cells derived from cancers (colon, lung, lung and pancreatic, respectively) known to have activating mutations in RAS.

cytochrome c = assay: Cytochrome c release from mitochondria; format: cell-based, human; conditions: BJ-TERT/LT/ST/RAS^V12 cells; staurosporine 1 μM or erastin 20 μg/mL, 6 h
Method: BJ-TERT/LT/ST/RAS^V12 cells were seeded in polystyrene 100×20 mm dishes in 10 ml media. After overnight incubation at 37° C. with 5% CO2, the cells were treated with nothing (NT), staurosporine (ST, 1 μM) or erastin (20 μg/mL) for 6 h, washed with 10 mL ice-cold PBS and lysed by passage through a 25-gauge needle (five strokes). Cell lysates were centrifuged at 1850 rpm for 5 min at 4° C. to remove the nuclear fraction. Mitochondria were removed from the soluble cytosolic fraction by pelleting at 10,000 rpm. Supernatant and mitochondrial pellets were solubilized in SDS-PAGE loading buffer and analyzed by western blot using anti-cytochrome c and pan-VDAC antibodies and IR-dye-linked secondary antibodies. VDACs are mitochondrial proteins, so their absence in the cytosolic lane indicates effective separation of cytosol (C) from mitochondria (M). Fluorescence was detected on a LI-COR Odyssey infrared scanner.
For the cytochrome c release assay, cells were washed with 10 mL of ice-cold PBS, suspended in 120 μL of buffer (300 mM sucrose, 0.1% BSA, 10 mM HEPES, pH 7.5, 10 mM KCl, 1.5 mM MgCl2, 1 mM EGTA, 1 mM EDTA, 1 mM dithiothreitol, 2 mM phenylmethanesulfonyl fluoride and 1 protease inhibitor tablet (Roche)) and incubated on ice for 15 min. […] Supernatant and mitochondrial pellets were solubilized in SDS-PAGE loading buffer and analyzed by western blotting.

| Compound | Cell death (%) [1] | Effect on erastin-induced cell death [2] | PARP1 cleavage (PARP1) | also measured |
| --- | --- | --- | --- | --- |
| COc1cc2c(cc1O)CC[C@@H]1[C@@H]2CC[C@]2(C)[C@@H](O)CC[C@@H]12 [2-ME, 2-methoxyestradiol] | 66% | partially suppressed erastin-induced cell death | – | – |
| CC[C@@]1(O)C(=O)OCc2c1cc1n(c2=O)Cc2cc3ccccc3nc2-1 [camptothecin, reference compound] | – | – | degraded | percentage of cells in M1 region (Annexin V staining) [3]: 38% |
| CCOc1ccccc1-n1c(C(C)N2CCN(C(C)=O)CC2)nc2ccccc2c1=O (centres unmarked) [erastin A8, 2-[1-(4-Acetyl-piperazin-1-yl)-ethyl]-3-(2-ethoxy-phenyl)-3H-quinazolin-4-one] | – | – | – | Direct binding to VDAC2 (VDAC2): unlike the inactive erastin A8, directly binds VDAC2; Rate of NADH oxidation / permeability of outer mitochondrial membrane to NADH (murine VDAC3): had no effect on mitochondrial membrane permeability; Selective lethality / activity of erastin analog [4]: inactive |
| CN[C@@H]1C[C@H]2O[C@@](C)([C@@H]1OC)n1c3ccccc3c3c4c(c5c6ccccc6n2c5c31)C(=O)NC4 [staurosporine, reference compound] | – | – | cleaved from 110 kD to 85 kD | Cytochrome c release from mitochondria (cytochrome c): released |
| antimycin | 51% | partially suppressed erastin-induced cell death | – | – |
